What was measured:
SCC9 (OSCC cell) = assay: MTT cell viability assay (cytotoxicity), SCC9; format: cell-based, human; details: for IC50: Homo sapiens, SCC-9, SCC9, 48 h, MTT (Table 1), read-out: SCC9—Oral Cancer IC50; for SCC9 S.I.: IC50 normal oral fibroblasts / IC50 SCC9
Method: (§1) Cells and reagents. Human SCC-4, SCC-9, and SCC-25 cells, derived from a human oral tongue SCC (squamous cell carcinoma) were obtained from the ATCC (CRL-1624, CRL-1629, and CRL-1628, respectively) and maintained in 1:1 DMEM/F12 (Dulbecco’s modified Eagle medium and Ham’s F12 medium; Gibco (Thermo Fisher, Waltham, MA, USA)) supplemented with 10% (v/v) FBS (fetal bovine serum; Invitrogen, Thermo Fisher, Waltham, MA, USA) and 400 ng/mL hydrocortisone (Sigma-Aldrich Co., St. Louis, MO, USA). Primary normal human gingival fibroblasts were obtained from the ATCC (PCS-201-018) and maintained in DMEM supplemented with 10% (v/v) FBS and were used in a maximum of six passages. The cells were grown in a humidified environment containing 5% CO2 at 37 °C. […] Carboplatin stock was prepared in water (Fauldcarbo®; LibbsFarmacêutica, São Paulo, SP, Brazil) and was used as a standard anticancer compound.
(§2) Cell viability assay (cytotoxicity) and compound stability assay. The viability of SCC cell lines and primary human fibroblast cells was evaluated using the MTT assay as in [48]. Briefly, the cells were grown in triplicates in 96-well plates (5 × 10^3 cells/well) until confluence. Then, the medium was removed, fresh medium was added, and the cells were returned to the incubator in the presence of different compounds. DMSO at the same concentrations was used as a 100% cell viability control. After 48 h, the cells were incubated with 5 mg/mL MTT reagent (3-(4,5-dimethyl-2-thiazolyl)-2,5-diphenyl-2-H-tetrazolium bromide) (Sigma-Aldrich Co., St. Louis, MO, USA) for 3.5 h. After that, formazan crystals were dissolved in MTT solvent solution (DMSO/methanol 1:1 v/v) and the absorbance at 560 nm was evaluated using an EPOCH microplate spectrophotometer (BioTek Instruments, Winooski, VT, USA) with the background absorbance at 670 nm subtracted.
(§3) Statistical analysis, IC50 calculation. The data are presented as means ±\SD. IC50 values for the MTT assays were obtained by nonlinear regression using the […] 5.0 program (Intuitive Software for Science, San Diego, CA, USA) from at least three independent experiments. A dose–response (inhibitor) vs. response curve using the least squares method was used to determine the IC50, SD, and R^2 of the data. The selectivity index was calculated as SI = IC50 of the compound in normal oral fibroblast cells/IC50 of the same compound for each oral cancer cell line (SCC-4, SCC-9, and SCC-25) and the mean was calculated when indicated.

SCC25 OSCC cell line = assay: MTT cell viability assay (cytotoxicity), SCC25; format: cell-based, human; details: for IC50: Homo sapiens, SCC-25, SCC25, 48 h, MTT, read-out: Oral Tumor Cells SCC25 IC50; for SCC25 S.I.: IC50 normal oral fibroblasts / IC50 SCC25
Method: as §1, §2, §3

SCC4 OSCC cell line = assay: MTT cell viability assay (cytotoxicity), SCC4; format: cell-based, human; details: for IC50: Homo sapiens, SCC-4, SCC4, 48 h, MTT, read-out: Oral Tumor Cells SCC4 IC50; for SCC4 S.I.: IC50 normal oral fibroblasts / IC50 SCC4
Method: as §1, §2, §3

[1] = MTT cell viability assay, normal fibroblasts; format: cell-based, human; details: human, primary normal human gingival fibroblasts (ATCC PCS-201-018)
Method: as §1, §2, §3

[2] = system: Primary normal human gingival fibroblasts; assay: MTT cell viability assay, normal fibroblasts; format: cell-based; details: Homo sapiens, Fibroblast; primary gingival fibroblasts, 48 h, MTT; read-out: Primary Gingival Fibroblast IC50
Method: as §1, §2, §3

| Structure (SMILES) | IC50 (SCC9 (OSCC cell)) [µM] | SCC9 S.I. (SCC9 (OSCC cell)) | IC50 (SCC25 OSCC cell line) [µM] | SCC25 S.I. (SCC25 OSCC cell line) | IC50 (SCC4 OSCC cell line) [µM] | SCC4 S.I. (SCC4 OSCC cell line) | viability at 48 h [1] [%] | IC50 [2] [µM] | melting point [°C] |
| --- | --- | --- | --- | --- | --- | --- | --- | --- | --- |
| COc1ccc(C2C3=C(CC(C)(C)CC3=O)NC3=C2C(=O)c2ccccc2C3=O)c(OC)c1 (stereo not drawn) [4j, 12-(2,4-dimethoxyphenyl)-3,3-dimethyl-3,4-dihydrobenzo[b]acridine-1,6,11(2H,5H,12H)-trione] | 4.1 | 5.7 | 11.5 | 2.0 | 18.9 | 1.2 | > 75 | 23.6 | 250 to 251 |
| COc1cc(C2C3=C(CC(C)(C)CC3=O)NC3=C2C(=O)c2ccccc2C3=O)cc(OC)c1OC (stereo not drawn) [4m, 12-(3,4,5-trimethoxyphenyl)-3,3-dimethyl-3,4-dihydrobenzo[b]acridine-1,6,11(2H,5H,12H)-trione] | 2.06 | 3.8 | 7.41 | 1.1 | 11 | 0.7 | > 75 | 7.86 | 242 to 243 |
